Measurements reported in patent publication US5646156A, “Inhibition of eosinophil activation through A3 adenosine receptor antagonism” (Merck & Co., Inc., priority 1994, dated 1997).

Experiments:
[1] = tested on: human adenosine receptors (all subtypes); settings: cited from earlier work
[2] = molecular target: T1, human A3 adenosine receptor (Homo sapiens, UniProt P0DMS8); settings: potencies disclosed by Salvatore et al.; cited from earlier work
T1 construct: clone HS-21a contained the complete open reading frame corresponding to the human homolog of the rat A3 adenosine receptor; expressed in transfected cells; host or cells: CHO cells, stably transfected (pCMV5-A3; pSVL and pREP vectors are also described)
T1 sequence (P0DMS8 1-318): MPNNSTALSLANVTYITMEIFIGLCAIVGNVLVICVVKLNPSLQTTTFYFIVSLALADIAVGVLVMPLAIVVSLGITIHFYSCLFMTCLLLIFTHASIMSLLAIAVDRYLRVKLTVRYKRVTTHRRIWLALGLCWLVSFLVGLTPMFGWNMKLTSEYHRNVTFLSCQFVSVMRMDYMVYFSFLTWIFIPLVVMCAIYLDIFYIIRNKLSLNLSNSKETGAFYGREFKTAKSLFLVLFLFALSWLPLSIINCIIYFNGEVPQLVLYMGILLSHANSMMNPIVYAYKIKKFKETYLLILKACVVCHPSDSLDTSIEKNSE

[3] = molecular target: T1, human A3 adenosine receptor; experiment: Competition binding vs 125I-ABA, membranes of CHO cells stably expressing HS-21a (human A3 adenosine receptor); settings: competition with 125I-ABA, CHO membranes, human A3
Experimental: Pellets were resuspended in 5 mM Hepes, pH 7.4/5 mM MgCl2 /0.1 mM benzamidine/0.1 mM PMSF at a protein concentration of 1-2 mg/mL and were incubated with adenosine deaminase (Boehringer Mannheim), 2 U/mL at 37° C. for 20 minutes. […] The assay was terminated by rapid filtration and three washes with ice-cold binding buffer on a Skatron harvester equipped with a receptor binding filtermat (Skatron Instruments, INC). […] Nonspecific binding was measured in the presence of 1 μM I-ABA. […] Binding data were analyzed and competition curves were constructed by use of the nonlinear regression curve fitting program Graph PAD InPlot, Version 3.0 (Graph Pad Software, San Diego).

[4] = molecular target: T1, human A3 adenosine receptor; settings: antagonist potency in cAMP assay; disclosed by Salvatore et al.; cited from earlier work

Structure (SMILES): CCCn1c(=O)c2[nH]c(-c3ccc(C=CC(=O)O)cc3)nc2n(CCC)c1=O [BW-A1433, 1,3-dipropyl-8-(4-acrylate)phenylxanthine]
- blockade of human adenosine receptor subtypes [1]: blocked
- BINDING pKi [2]: 7.26
- Ki [3]: 55 nM
- cAMP pKi [4]: 7.0
